Values joined by “and” are separate entries in the source; they are usually repeats but may differ in a detail not shown here. Equal values may be shown once.
System: Swiss mice, Sarcoma 180 sc, mean tumor weight T/C
Test: NCI In Vivo Anticancer Drug Screen. Data for tumor model Sarcoma 180 (subcutaneous) in Swiss mice
Settings: endpoint: mean tumor weight, higher = larger tumour
Protocol: The antitumor activity of compounds was measured in mice bearing transplantable tumors. Survival or tumor size were measured and the results are expressed as the measurement made in the treated group (T) divided by the measurement made in the vehicle treated control group (C). The tumor model used in this assay is Sarcoma 180 (subcutaneous) in Swiss mice

c1ccn(-c2nc(-n3cccc3)nc(-n3cccc3)n2)c1
T/C (dose: 31.25 mg/kg/injection, schedule: Q#A X014 (ip), vehicle: carboxymethylcellulose (CMC)): 47 % of control
T/C (dose: 62.5 mg/kg/injection, schedule: Q#A X014 (ip), vehicle: carboxymethylcellulose (CMC)): 43 % of control
T/C (dose: 125.0 mg/kg/injection, schedule: Q#A X014 (ip), vehicle: carboxymethylcellulose (CMC)): 46 % of control

Nc1nc(=S)c2ncn(C3OC(CO)C(O)C3O)c2[nH]1 (stereo not given)
T/C (dose: 0.62 mg/kg/injection, schedule: Q#A X014 (ip), vehicle: carboxymethylcellulose (CMC)): 86 % of control
T/C (dose: 1.25 mg/kg/injection, schedule: Q#A X014 (ip), vehicle: carboxymethylcellulose (CMC)): 91 % of control
T/C (dose: 1.3 mg/kg/injection, schedule: Q#A X014 (ip), vehicle: carboxymethylcellulose (CMC)): 86 % of control and 95 % of control
T/C (dose: 2.0 mg/kg/injection, schedule: Q#A X014 (ip), vehicle: carboxymethylcellulose (CMC)): 83 % of control and 94 % of control
T/C (dose: 2.5 mg/kg/injection, schedule: Q#A X014 (ip), vehicle: carboxymethylcellulose (CMC)): 86 % of control
T/C (dose: 2.65 mg/kg/injection, schedule: Q#A X014 (ip), vehicle: carboxymethylcellulose (CMC)): 51 % of control and 74 % of control
T/C (dose: 5.0 mg/kg/injection, schedule: Q#A X014 (ip), vehicle: carboxymethylcellulose (CMC)): 90 % of control

CCOC(=O)CCc1ccc(N=NN2CCCC2)cc1
T/C (dose: 225.0 mg/kg/injection, schedule: Q01DX007 (ip), vehicle: carboxymethylcellulose (CMC)): 110 % of control
T/C (dose: 450.0 mg/kg/injection, schedule: Q01DX007 (ip), vehicle: carboxymethylcellulose (CMC)): 95 % of control

NCCCC(NC(=O)CCCCCCCCN=C(N)N)C(O)CCCCCCCCN=C(N)N (stereo not given)
T/C (dose: 0.38 mg/kg/injection, schedule: Q01DX007 (ip), vehicle: carboxymethylcellulose (CMC)): 100 % of control
T/C (dose: 0.75 mg/kg/injection, schedule: Q01DX007 (ip), vehicle: carboxymethylcellulose (CMC)): 97 % of control
T/C (dose: 1.5 mg/kg/injection, schedule: Q01DX007 (ip), vehicle: carboxymethylcellulose (CMC)): 113 % of control
T/C (dose: 3.0 mg/kg/injection, schedule: Q01DX007 (ip), vehicle: carboxymethylcellulose (CMC)): 76 % of control
T/C (dose: 6.0 mg/kg/injection, schedule: Q01DX007 (ip), vehicle: carboxymethylcellulose (CMC)): 92 % of control
T/C (dose: 9.0 mg/kg/injection, schedule: Q01DX007 (ip), vehicle: carboxymethylcellulose (CMC)): 123 % of control
T/C (dose: 12.0 mg/kg/injection, schedule: Q01DX007 (ip), vehicle: carboxymethylcellulose (CMC)): 68 % of control
T/C (dose: 15.0 mg/kg/injection, schedule: Q01DX007 (ip), vehicle: carboxymethylcellulose (CMC)): 47 % of control

COCCOC1=C(N2CC2)C(=O)C(OCCOC)=C(N2CC2)C1=O
T/C (dose: 0.89 mg/kg/injection, schedule: Q01DX007 (sc), vehicle: saline): 61 % of control
T/C (dose: 1.3 mg/kg/injection, schedule: Q01DX007 (sc), vehicle: saline): 72 % of control
T/C (dose: 1.6 mg/kg/injection, schedule: Q01DX007 (oral), vehicle: saline): 95 % of control
T/C (dose: 2.0 mg/kg/injection, schedule: Q01DX001 (ip), vehicle: saline): 97 % of control
T/C (dose: 2.0 mg/kg/injection, schedule: Q01DX006 (iv), vehicle: saline): 71 % of control
T/C (dose: 2.0 mg/kg/injection, schedule: Q01DX007 (im), vehicle: saline): 59 % of control
T/C (dose: 2.0 mg/kg/injection, schedule: Q01DX007 (ip), vehicle: saline): 56 % of control
T/C (dose: 2.0 mg/kg/injection, schedule: Q01DX007 (sc), vehicle: saline): 45 % of control
T/C (dose: 2.0 mg/kg/injection, schedule: Q03DX003 (ip), vehicle: saline): 64 % of control
T/C (dose: 2.4 mg/kg/injection, schedule: Q01DX007 (oral), vehicle: saline): 75 % of control
T/C (dose: 3.0 mg/kg/injection, schedule: Q01DX001 (ip), vehicle: saline): 48 % of control
T/C (dose: 3.0 mg/kg/injection, schedule: Q01DX006 (iv), vehicle: saline): 48 % of control
T/C (dose: 3.0 mg/kg/injection, schedule: Q01DX007 (im), vehicle: saline): 59 % of control
T/C (dose: 3.0 mg/kg/injection, schedule: Q01DX007 (ip), vehicle: saline): 37 % of control
T/C (dose: 3.0 mg/kg/injection, schedule: Q01DX007 (sc), vehicle: saline): 30 % of control
T/C (dose: 3.0 mg/kg/injection, schedule: Q03DX003 (ip), vehicle: saline): 50 % of control
T/C (dose: 3.6 mg/kg/injection, schedule: Q01DX007 (oral), vehicle: saline): 73 % of control
T/C (dose: 4.0 mg/kg/injection, schedule: Q01DX006 (iv), vehicle: saline): 21 % of control
T/C (dose: 4.0 mg/kg/injection, schedule: Q03DX003 (ip), vehicle: saline): 51 % of control
T/C (dose: 5.3 mg/kg/injection, schedule: Q01DX007 (oral), vehicle: saline): 38 % of control
T/C (dose: 6.0 mg/kg/injection, schedule: Q01DX001 (ip), vehicle: saline): 83 % of control
T/C (dose: 6.0 mg/kg/injection, schedule: Q03DX003 (ip), vehicle: saline): 33 % of control
T/C (dose: 8.0 mg/kg/injection, schedule: Q01DX007 (oral), vehicle: saline): 34 % of control
T/C (dose: 12.0 mg/kg/injection, schedule: Q01DX001 (ip), vehicle: saline): 32 % of control

CCCCNP(=O)(N1CC1C)N1CC1C (stereo not given)
T/C (dose: 7.0 mg/kg/injection, schedule: Q#A X014 (ip), vehicle: saline): 64 % of control
T/C (dose: 10.5 mg/kg/injection, schedule: Q#A X014 (ip), vehicle: saline): 62 % of control
T/C (dose: 15.5 mg/kg/injection, schedule: Q#A X014 (ip), vehicle: saline): 50 % of control
T/C (dose: 23.5 mg/kg/injection, schedule: Q#A X014 (ip), vehicle: saline): 39 % of control

OC(CBr)C(O)C(O)C(O)CBr (stereo not given)
T/C (dose: 25.0 mg/kg/injection, schedule: Q01DX007 (ip), vehicle: saline): 106 % of control
T/C (dose: 50.0 mg/kg/injection, schedule: Q01DX007 (ip), vehicle: saline): 95 % of control and 117 % of control
T/C (dose: 100.0 mg/kg/injection, schedule: Q01DX007 (ip), vehicle: saline): 104 % of control and 107 % of control
T/C (dose: 400.0 mg/kg/injection, schedule: Q01DX007 (ip), vehicle: saline): 88 % of control

CC(=O)OCC1OC(n2ncc(=O)[nH]c2=O)C(OC(C)=O)C1OC(C)=O (stereo not given)
T/C (dose: 375.0 mg/kg/injection, schedule: Q01DX007 (ip), vehicle: other): 74 % of control
T/C (dose: 750.0 mg/kg/injection, schedule: Q01DX007 (ip), vehicle: other): 93 % of control
T/C (dose: 1500.0 mg/kg/injection, schedule: Q01DX007 (ip), vehicle: other): 74 % of control

COC(=O)C1=COC(C)C2CN3CCc4c([nH]c5cc(OC)ccc45)C3CC12 (stereo not given)
T/C (dose: 50.0 mg/kg/injection, schedule: Q01DX007 (ip), vehicle: other): 91 % of control
T/C (dose: 100.0 mg/kg/injection, schedule: Q01DX007 (ip), vehicle: other): 89 % of control
T/C (dose: 200.0 mg/kg/injection, schedule: Q01DX007 (ip), vehicle: other): 75 % of control

Cn1c(N)nc2nc[nH]c2c1=S
T/C (dose: 1.35 mg/kg/injection, schedule: Q#A X014 (ip), vehicle: methylcellulose (MC)): 108 % of control
T/C (dose: 2.0 mg/kg/injection, schedule: Q#A X014 (ip), vehicle: methylcellulose (MC)): 45 % of control
T/C (dose: 3.0 mg/kg/injection, schedule: Q#A X014 (ip), vehicle: methylcellulose (MC)): 67 % of control
T/C (dose: 4.5 mg/kg/injection, schedule: Q#A X014 (ip), vehicle: methylcellulose (MC)): 37 % of control

CC(O)C(NCNC(=O)C1=C(O)C2(O)C(=O)C3=C(O)c4c(O)cccc4C(C)(O)C3CC2C(N(C)C)C1=O)C(=O)O (stereo not given)
T/C (dose: 250.0 mg/kg/injection, schedule: Q#A X014 (ip), vehicle: saline): 44 % of control and 46 % of control

CCC1=C(c2cc(Cl)c3ccccc3c2OCC(=O)O)OC(CC)(C(=O)c2cc(Cl)c3ccccc3c2OCC(=O)O)CC1 (stereo not given)
T/C (dose: 2.0 mg/kg/injection, schedule: Q01DX007 (ip), vehicle: other): 110 % of control
T/C (dose: 4.0 mg/kg/injection, schedule: Q01DX007 (ip), vehicle: other): 120 % of control
T/C (dose: 8.0 mg/kg/injection, schedule: Q01DX007 (ip), vehicle: other): 90 % of control
T/C (dose: 16.0 mg/kg/injection, schedule: Q01DX007 (ip), vehicle: other): 112 % of control
T/C (dose: 75.0 mg/kg/injection, schedule: Q01DX007 (ip), vehicle: other): 95 % of control
T/C (dose: 111.0 mg/kg/injection, schedule: Q01DX007 (ip), vehicle: other): 49 % of control

Nc1cc(SCc2ccccc2)nc(N)n1
T/C (dose: 18.75 mg/kg/injection, schedule: Q#A X014 (ip), vehicle: methylcellulose (MC)): 52 % of control
T/C (dose: 37.5 mg/kg/injection, schedule: Q#A X014 (ip), vehicle: methylcellulose (MC)): 70 % of control
T/C (dose: 66.5 mg/kg/injection, schedule: Q#A X014 (ip), vehicle: methylcellulose (MC)): 29 % of control
T/C (dose: 75.0 mg/kg/injection, schedule: Q#A X014 (ip), vehicle: methylcellulose (MC)): 68 % of control
T/C (dose: 100.0 mg/kg/injection, schedule: Q#A X014 (ip), vehicle: methylcellulose (MC)): 40 % of control
T/C (dose: 225.0 mg/kg/injection, schedule: Q#A X014 (ip), vehicle: methylcellulose (MC)): 35 % of control
